# Reference: patent US11236378B2 (priority 2015, dated 2022)
# System: HEK293T cells
# Conditions: human
smiles,measurement,value
"COc1ncc(-c2ccc3nc(N)n(-c4ccc(N5CCOCC5)cc4)c3c2)cc1S(=O)(=O)Nc1ccccc1F [A1, 5-(2-amino-1-(4-(4-morpholinyl)phenyl)-1H-benzimidazol-6-yl)-N-(2-fluorophenyl)-2-methoxy-3-pyridinesulfonamide]",concentration that killed most of the cells,≥ 250 nM
